Key:
[1] = system: WM1552C; test: apoptotic fraction of cells (caspase-3 NucView488 positive); higher = more apoptosis
Method: (§1)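 BRAF V600E/D melanoma cell lines were seeded in 96-well plates, treated in 4 replicates with seven doses (3.16 nM to 3.16 uM) of RAF/MEK inhibitors for 24, 48 or 72 h, and stained with Hoechst 33342 (nuclei) and DEVD-NucView488 caspase-3 substrate. Plates were imaged on an Operetta. Relative viability is the cell count normalised to a DMSO-treated control; apoptosis fraction is the fraction of NucView488-positive nuclei.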

[2] = system: COLO858; test: as above
Method: as §1

[3] = system: RVH421; test: as above
Method: as §1

[4] = system: LOXIMVI; test: as above
Method: as §1

[5] = system: WM1552C; test: relative viability (cell count relative to DMSO-treated control) (fraction of DMSO control); higher = more viable cells / less drug effect
Method: as §1

[6] = system: MZ7MEL; test: as above
Method: as §1

CN(C)CCOc1ccc(-c2nc(-c3ccncc3)c(-c3ccc4c(c3)CC/C4=N\O)[nH]2)cc1
Conditions	apoptotic fraction of cells, [1]	apoptotic fraction of cells, [2]	apoptotic fraction of cells, [3]	apoptotic fraction of cells, [4]	relative viability, [5]	relative viability, [6]
24 h, 0.00316 µM	0.059	0.0451	0.0543	0.0512	0.999	1.1
24 h, 0.01 µM	0.05804	0.0421	0.0588	0.0389	1.036	1.18
24 h, 0.0316 µM	0.0561	0.0423	0.0478	0.0361	0.986	1.1
24 h, 0.1 µM	0.0693	0.0572	0.0495	0.0658	1.08	1.09
24 h, 0.316 µM	0.0643	0.0792	0.0536	0.0417	1.03	1.18
24 h, 1 µM	0.0626	0.123	0.062	0.0511	1.088	1.13
24 h, 3.16 µM	0.0608	0.13	0.0619	0.0461	1.05	0.887
48 h, 0.00316 µM	0.075	0.0512	0.05	0.143	1.01	1.07
48 h, 0.01 µM	0.0725	0.0508	0.0534	0.0806	1.01	0.968
48 h, 0.0316 µM	0.0713	0.0484	0.0615	0.0671	0.994	0.991
48 h, 0.1 µM	0.067	0.0742	0.0578	0.0471	0.994	0.874
48 h, 0.316 µM	0.0576	0.153	0.0567	0.0374	0.954	0.67
48 h, 1 µM	0.0631	0.237	0.0708	0.0404	0.87	0.608
48 h, 3.16 µM	0.0655	0.341	0.0883	0.0453	0.82	0.545
72 h, 0.00316 µM	0.0862	0.0855	0.0342	0.253	1.03	1.23
72 h, 0.01 µM	0.0741	0.0692	0.0346	0.188	1.16	1.14
72 h, 0.0316 µM	0.0679	0.0676	0.0361	0.135	1.15	0.834
72 h, 0.1 µM	0.0654	0.077	0.044	0.0607	1.03	0.614
72 h, 0.316 µM	0.0685	0.141	0.0408	0.0478	0.899	0.537
72 h, 1 µM	0.0776	0.268	0.0371	0.0458	0.699	0.414
72 h, 3.16 µM	0.113	0.424	0.033	0.0628	0.616	0.387

CCCS(=O)(=O)Nc1ccc(F)c(C(=O)c2c[nH]c3ncc(Cl)cc23)c1F [PLX4720]
Conditions	apoptotic fraction of cells, [1]	apoptotic fraction of cells, [2]	apoptotic fraction of cells, [3]	apoptotic fraction of cells, [4]	relative viability, [5]	relative viability, [6]
24 h, 0.00316 µM	0.0609	0.0469	0.0586	0.0547	1.02	1.02
24 h, 0.01 µM	0.0582	0.0452	0.0457	0.0479	1.05	1.02
24 h, 0.0316 µM	0.0522	0.0424	0.0542	0.0396	1.031	1.14
24 h, 0.1 µM	0.0708	0.0482	0.052	0.0507	1.08	1.19
24 h, 0.316 µM	0.0728	0.0562	0.0578	0.033	1.02	1.13
24 h, 1 µM	0.0756	0.108	0.0478	0.0507	1.064	0.956
24 h, 3.16 µM	0.0738	0.154	0.0574	0.0445	0.9942	0.795
48 h, 0.00316 µM	0.0618	0.0522	0.0464	0.111	0.976	1.04
48 h, 0.01 µM	0.0656	0.0523	0.062	0.0809	0.994	0.99
48 h, 0.0316 µM	0.0655	0.0462	0.0512	0.0585	1.01	1.02
48 h, 0.1 µM	0.0534	0.0498	0.05	0.0482	0.977	1.09
48 h, 0.316 µM	0.044	0.0785	0.058	0.0482	0.839	0.931
48 h, 1 µM	0.0563	0.184	0.0593	0.0654	0.795	0.608
48 h, 3.16 µM	0.0762	0.323	0.0831	0.113	0.723	0.48
72 h, 0.00316 µM	0.0768	0.0883	0.0342	0.211	1.04	1.28
72 h, 0.01 µM	0.0708	0.0826	0.035	0.144	1.13	1.16
72 h, 0.0316 µM	0.0682	0.0717	0.0338	0.074	1.13	1.07
72 h, 0.1 µM	0.063	0.053	0.0375	0.0395	1.03	0.661
72 h, 0.316 µM	0.0671	0.0842	0.0466	0.048	0.83	0.504
72 h, 1 µM	0.0953	0.183	0.051	0.0542	0.576	0.382
72 h, 3.16 µM	0.129	0.374	0.0617	0.159	0.497	0.329

— the supplement of paper PMC4380931
